Laboratory results: patent publication US20230240953A1, “AN ANTIMICROBIAL COMPOSITION, PROCESS FOR PREPARING THE SAME AND METHOD OF USE THEREOF” (ISP INVESTMENTS LLC, priority 2020, published 2023)
Like-named read-outs stand apart in the source and are kept apart here.

Key:
Assay in all cases: Checkerboard microplate synergy assay, compound A = HPB
Type in all cases: cell-based
[1] = system: Staphylococcus aureus 6538; details: for Interaction / SI index (Synergy Index = Qa/QA+Qb/QB): HPB + compound B
Experimental: (§1) The synergistic antimicrobial effect was determined using a commonly accepted method described by Kull A. C, Eisman, P. C. Sylwestrowicz, H. D. and Mayer, R. L. 1961. Applied Microbiology, 9:538-541
(§2) Briefly, the standard checkerboard approach was used to make all the dilutions. HPB (compound A) solution was prepared and then serially diluted in DMSO using the 96-well dilution plate. Automated liquid handler was then used to stamp multiple assay plates using this dilution plate. Each well of the assay plate was then supplemented with a predetermined concentration of the second antimicrobial (compound B). The final concentration of DMSO was kept constant across the plate for each assay, not exceeding 3% (w/w).
(§3) To evaluate antibacterial activity of the actives, freshly prepared S. aureus and B. cepacia cells were harvested and resuspended in Trypticase Soy Broth (TSB). The cell suspension was then added to the wells of the appropriate plates with the final cell density being 10^6 cfu/ml. Fungal plates were incubated at 28° C. for 4-5 days, prior to being evaluated. Bacterial plates were incubated for 48 hours at 35° C. prior to being evaluated.
(§4) Synergy Index (SI)=Qa/QA+Qb/QB • Qa is the MIC of compound A (HPB) in ppm, when compound A is being used in combination with compound B • QA is the MIC of compound A (HPB) in ppm, acting alone • Qb is the MIC of compound B in ppm, when the compound B is being used in combination with compound A • QB is the MIC of compound B in ppm, acting alone Each ratio Qa/QA and Qb/QB is sometimes referred to as Fractional Inhibitory Concentrations (FICs) of compounds A and B, respectively, when these two compounds are being used in combination with one another. The sum of FICs constitute the Synergy Index (SI). The synergistic effect is indicated if the Synergy Index is below one (SI<1). An additive effect is indicated if the Synergy Index is equal to one (SI=1). An antagonistic effect is indicated if synergy index is greater than one (SI>1). The lower the SI index the greater the synergy.

[2] = system: Aspergillus brasiliensis 16404; design: key to SI index (Synergy Index = Qa/QA+Qb/QB): SI = Qa/QA + Qb/QB (MICs in ppm); <1 synergy, =1 additive, >1 antagonism; details: for MIC: Aspergillus brasiliensis, 16404, compound B alone, read-out: Compound B (Qb): MIC of compound B acting alone; for Interaction / SI index (Synergy Index = Qa/QA+Qb/QB): HPB + compound B
Experimental: as §1, §2
To evaluate antifungal activity of the actives, freshly prepared A. brasiliensis spores were harvested and resuspended in Yeast and Malt Broth (YMB). The spore suspension was then added to the appropriate plates with the final density being 10^5 cfu/ml.
as §3, §4

[3] = system: Burkholderia cepacia 25416; details: for Interaction / SI index (Synergy Index = Qa/QA+Qb/QB): HPB + compound B
Experimental: as §1, §2, §3, §4

[4] = Staphylococcus aureus, 6538, S. aureus, compound B alone, read-out: Compound B (QB): MIC of compound B acting alone
[5] = Burkholderia cepacia, 25416, B. cepacia, compound B alone, read-out: Compound B (Qb): MIC of compound B acting alone

Compound | MIC [2] [µg/mL] | Interaction [2] | SI index (Synergy Index = Qa/QA+Qb/QB) [2] | Compound B (Qb): MIC of compound B when used in combination with HPB [2] | Compound B (Qb): MIC of compound B acting alone [2] | also measured
OCc1ccccc1 [Benzyl alcohol] | 5000 | Synergistic (The synergistic effect is indicated if the Synergy Index is below one (SI<1)) | 0.75 | 2,500 ppm | – | Interaction ([1]; S. aureus): synergistic; SI index (Synergy Index = Qa/QA+Qb/QB) ([1]; S. aureus): ≤0.625; Compound B (Qb): MIC of compound B when used in combination with HPB ([1]; S. aureus): 625 ppm; MIC [1, 4]: 5000 µg/mL
OCCCO [1,3-Propanediol] | – | Additive (An additive effect is indicated if the Synergy Index is equal to one (SI=1)) | ≤1 | 100,000 ppm | ≥200,000 ppm | –
Cc1occc(=O)c1O [Maltol] | 2000 | Synergistic (The synergistic effect is indicated if the Synergy Index is below one (SI<1)) | 0.75 | 1,000 ppm | – | –
Hexyl glycerin | – | Additive (An additive effect is indicated if the Synergy Index is equal to one (SI=1)) | 1 | 1,600 ppm | 3,125 ppm | –
Glyceryl caprylate/caprate | – | Synergistic (The synergistic effect is indicated if the Synergy Index is below one (SI<1)) | 0.75 | 800 ppm | 3,125 ppm | –
OCCCc1ccccc1 | – | – | – | – | – | Interaction ([1]; S. aureus): synergistic; SI index (Synergy Index = Qa/QA+Qb/QB) ([1]; S. aureus): ≤0.5625; Compound B (Qb): MIC of compound B when used in combination with HPB ([1]; S. aureus): 156 ppm; Compound B (QB): MIC of compound B acting alone ([1]; S. aureus, compound B alone): 2,500 ppm; Interaction ([3]; B. cepacia): synergistic; SI index (Synergy Index = Qa/QA+Qb/QB) ([3]; B. cepacia): 0.75; Compound B (Qb): MIC of compound B when used in combination with HPB ([3]; B. cepacia): 156 ppm; Compound B (QB): MIC of compound B acting alone ([3]; B. cepacia, compound B alone): 625 ppm
COc1ccc(C=O)cc1OC [Veratraldehyde] | 2000 | Synergistic (The synergistic effect is indicated if the Synergy Index is below one (SI<1)) | 0.625 | 1,000 ppm | – | Interaction ([1]; S. aureus): synergistic; SI index (Synergy Index = Qa/QA+Qb/QB) ([1]; S. aureus): ≤0.625; Compound B (Qb): MIC of compound B when used in combination with HPB ([1]; S. aureus): 1,000 ppm; MIC ([1]; Staphylococcus aureus, 6538, read-out: Compound B (QB): MIC of compound B acting alone): ≥ 8000 µg/mL; Interaction ([3]; B. cepacia): synergistic; SI index (Synergy Index = Qa/QA+Qb/QB) ([3]; B. cepacia): 0.75; Compound B (Qb): MIC of compound B when used in combination with HPB ([3]; B. cepacia): 1000 ppm; MIC ([3]; Burkholderia cepacia, 25416, read-out: Compound B (Qb): MIC of compound B acting alone): 2000 µg/mL
CCCCNC(=O)OCC#CI [lodopropynyl butylcarbamate (IPBC), lodopropynyl butylcarbamate] | – | – | – | – | – | Interaction ([3]; B. cepacia): synergistic; SI index (Synergy Index = Qa/QA+Qb/QB) ([3]; B. cepacia): 0.508; Compound B (Qb): MIC of compound B when used in combination with HPB ([3]; B. cepacia): 2 ppm; Compound B (QB): MIC of compound B acting alone ([3]; B. cepacia, compound B alone): 250 ppm
O=C(O)CC[C@@H](C(=O)O)N(CC(=O)O)CC(=O)O [GLDA] | – | Synergistic (The synergistic effect is indicated if the Synergy Index is below one (SI<1)) | 0.75 | 1,600 ppm | 6,250 ppm | –
CCCC(O)CO (stereo not shown) [1,2-Pentanediol] | 100000 | Additive (An additive effect is indicated if the Synergy Index is equal to one (SI=1)) | 1 | 50,000 ppm | – | –
O=C(O)c1ccccc1 [Benzoic acid] | 1000 | Synergistic (The synergistic effect is indicated if the Synergy Index is below one (SI<1)) | 0.75 | 500 ppm | – | –
O=C(O)CN(CCN(CC(=O)O)CC(=O)O)CC(=O)O [EDTA] | – | Synergistic (The synergistic effect is indicated if the Synergy Index is below one (SI<1)) | 0.56 | 800 ppm | 12,500 ppm | –
CCCCCCC(O)CO (stereo not shown) [1,2-Octanediol] | 1600 | Synergistic (The synergistic effect is indicated if the Synergy Index is below one (SI<1)) | 0.56 | 100 ppm | – | –
CCCCCCCC(=O)NO [Caprylhydroxamic acid] | 250 | Synergistic (The synergistic effect is indicated if the Synergy Index is below one (SI<1)) | 0.5625 | 125 ppm | – | Interaction ([1]; S. aureus): synergistic; SI index (Synergy Index = Qa/QA+Qb/QB) ([1]; S. aureus): ≤0.625; Compound B (Qb): MIC of compound B when used in combination with HPB ([1]; S. aureus): 125 ppm; MIC [1, 4]: 1000 µg/mL; Interaction ([3]; B. cepacia): synergistic; SI index (Synergy Index = Qa/QA+Qb/QB) ([3]; B. cepacia): 0.75; Compound B (Qb): MIC of compound B when used in combination with HPB ([3]; B. cepacia): 31.3 ppm; MIC [3, 5]: 125 µg/mL
O=C(O)C=Cc1ccccc1 [Cinnamic acid] | 500 | Additive (An additive effect is indicated if the Synergy Index is equal to one (SI=1)) | 1-2 | 500 ppm | – | –
COc1ccc(C(=O)O)cc1 [Anisic acid] | – | Synergistic (The synergistic effect is indicated if the Synergy Index is below one (SI<1)) | 0.75 | 250 ppm | 1,000 ppm | –
CCCCC(CC)COCC(O)CO (stereo not shown) [Ethylhexylglycerin] | – | Synergistic (The synergistic effect is indicated if the Synergy Index is below one (SI<1)) | 0.56 | 100 ppm | 1,600 ppm | –
CCCCC(O)CO (stereo not shown) [1,2-Hexanediol] | 12500 | Additive (An additive effect is indicated if the Synergy Index is equal to one (SI=1)) | 1 | 6,300 ppm | – | –
O=P(O)(O)O[C@H]1[C@H](OP(=O)(O)O)[C@@H](OP(=O)(O)O)[C@H](OP(=O)(O)O)[C@@H](OP(=O)(O)O)[C@H]1OP(=O)(O)O [Phytic acid] | 12500 | Synergistic (The synergistic effect is indicated if the Synergy Index is below one (SI<1)) | 0.75 | 3,125 ppm | – | –
OCCc1ccccc1 [Phenethyl alcohol] | – | – | – | – | – | Interaction ([1]; S. aureus): synergistic; SI index (Synergy Index = Qa/QA+Qb/QB) ([1]; S. aureus): ≤0.75; Compound B (Qb): MIC of compound B when used in combination with HPB ([1]; S. aureus): 2,000 ppm; MIC [1, 4]: ≥ 4000 µg/mL; Interaction ([3]; B. cepacia): synergistic; SI index (Synergy Index = Qa/QA+Qb/QB) ([3]; B. cepacia): 0.625; Compound B (Qb): MIC of compound B when used in combination with HPB ([3]; B. cepacia): 125 ppm; MIC [3, 5]: 1000 µg/mL
[F-].[Na+] [Sodium fluoride] | – | – | – | – | – | Interaction ([3]; B. cepacia): synergistic; SI index (Synergy Index = Qa/QA+Qb/QB) ([3]; B. cepacia): ≤0.625; Compound B (Qb): MIC of compound B when used in combination with HPB ([3]; B. cepacia): 10,000 ppm; Compound B (QB): MIC of compound B acting alone ([3]; B. cepacia, compound B alone): ≥200,000 ppm
